Several values for one entry are separate records, joined by “and”; a condition that tells them apart may be missing. Identical values can stand only once.
System: GEMS receptors with CBPA11 (BclXL–LD3 and BclXLhigh variants), STAT3-driven SEAP in HEK293T cells
Experiment: GEMS SEAP reporter assay, CBPA11 (BclXLhigh, LD3-v and BclXL-v variants) with A-1155463
Assay type: cell-based
Set-up: key to Raw data (SEAP) / SEAP, replicate values / Raw data of Figure 5b / Raw data Figure 5e / Raw data of Independent repeat of CBPA11-v1 vs CBPA11-v1-LD3v3 / Raw data of Independent repeat of CBPA11-v3 vs CBPA11-v3-LD3v3 / Raw data of Figure 5b, CBPA11-v1-LD3v3 (SEAP reporter raw value, single replicate) / Raw data of Figure 5b, CBPA11-v1 (SEAP reporter raw value, single replicate): SEAP activity in U/L in culture supernatant
Conditions: for Normalized data (SEAP) / Raw data (SEAP): SuppFigure 9c, LD3v3
From the text: To rationally design a CBP responding to a chemical input, we used BclXL as the druglow receptor, LD3 as the designed binder and a designed BclXL variant as the drughigh receptor (referred to as BclXLhigh) to construct a CBP responsive to BclXL inhibitors (Fig. 4a). To design BclXLhigh, we used a multistate design computational protocol described elsewhere[26] […] Thus, BclXLhigh-v(1–3) were chosen as the functional drughigh receptors, resulting in three A-1155463-controlled CBPs (referred to as CBPA11-v(1–3)) (Fig. 4c–e).
HEK293T cells were seeded in a 96-well plate 24 h before transfection. The transfection mix in each well consisted of 3 ng of constitutive human CMV promoter driven mammalian STAT3 expression vector (PhCMV-STAT3-pA), 30 ng of STAT3-induced reporter expression (OStat3-PhCMVmin-SEAP-pA) and 50 ng of expression vectors for each GEMS receptor chain (PSV40-IgK-(drughigh receptor)-EpoRm-IL-6RBm-pA and PSV40-IgK-(druglow receptor-GGGGSX3-LD3)-EpoRm-IL-6RBm-pA). For the specific drughigh receptor and druglow receptor used in the different cellular assays, they are indicated as wild type or with mutations. Then, plasmid DNA was mixed with 50 μl opti-MEM (Thermo Fisher) and 600 ng of polyethyleneimine (Polysciences, catalog no. 24765-1). For drug treatment experiments, drugs were added 12 h post-transfection and incubated with cells for 24 h before the SEAP reporter detection assay.
SEAP activity (U l^−1) in cell culture supernatants was quantified by kinetic measurements at 405 nm (1 minute per measurement for 30 cycles) of absorbance increase due to phosphatase-mediated hydrolysis of para-nitrophenyl phosphate (pNPP).
Binding affinities of SPR drug competition assays were calculated using three-parameter nonlinear regression in GraphPad Prism (v.8.3.0). Representative data of cell assays are presented as individual values and mean values (bars). n = 3 refers to biological replicates. All IC50 or EC50 values of cell assays reported were calculated using four-parameter nonlinear regression ± s.d. Bandpass features of cutoff concentrations and Bandwidth90% were estimated based on the curve fitted using bell-shaped curve nonlinear regression in GraphPad Prism (v.8.3.0). […]
Supplementary Figure 4: Design, screening and validation of BclXLhigh variants. a) Screening of BclXLhigh variants in the GEMS platform. […]
Dissociation constant measurement of BclXLhigh-v(1-3) and LD3. Equilibrium curves are fitted using […]
BclXLhigh-v1 (purple), BclXLhigh-v2 (blue), […]
a) Bcl2high-based bandpass filter designs were developed and to respond to different concentrations of […]
corresponding inhibitor. c) Screening of Bcl2high-based bandpass filter variants in the GEMS platform.
The designed binder LD3 was fused to the druglow-receptor (PSV40-IgK-Bcl2-LD3-EpoRm-IL-6RBm-pA) in one EpoR chain and Bcl2high variants with the insensitive Bcl2 (iBcl2) as control in the other EpoR chain (PSV40-IgK-Bcl2high-EpoRm-IL-6RBm-pA). HEK293T cells were transfected with indicated […]
the mean of six biological replicates ± s.d., overlaid with a scatter dot plot of the original data points.
(1 picture or pasted object on this page, not shown here)
Supplementary Figure 6: Binding affinities and drug resistances of Bcl2high-v(2,4,5) assessed by […]
a) Measurement of dissociation constants for Bcl2high-v(2,4,5) and LD3 interactions. Equilibrium curves […]
Bcl2high-v(2,4,5) measured by SPR. 5 μM of Bcl2 or indicated variants were mixed with 10 μM of […]
Bcl2high-v2 (red), Bcl2high-v4
Supplementary Figure 7: Screening of LD3 variants in CBPA11-v(1-3) and raw data of CBPA11-v(1,3) with LD3-v3 variant. a-c) Screening of LD3 and LD3-v(1-3) variants in complex with BclXL for more sensitive CBPA11-v1 (a), CBPA11-v2 (b), CBPA11-v3 (c) in the GEMS platform. The LD3 variants replaced the role of LD3 (PSV40-IgK-BclXL-LD3-v(1-3)-EpoRm-IL-6RBm-pA) in one EpoR chain and BclXLhigh-v(1-3) in the other EpoR chain (PSV40-IgK-BclXLhigh-V(1-3)-EpoRm-IL-6RBm-pA). HEK293T cells were transfected with […]

## CN(C)CC#Cc1ccc(OCCCc2sc(N3CCc4cccc(C(=O)Nc5nc6ccccc6s5)c4C3)nc2C(=O)O)c(F)c1 [A-1155463]
A-1155463 10 nM
  Normalized data (SEAP): 57.1742
  Raw data (SEAP): 4.199
A-1155463 31.6 nM
  Normalized data (SEAP): 64.0307
  Raw data (SEAP): 4.702
A-1155463 100 nM
  Normalized data (SEAP): 100
  Raw data (SEAP): 7.344
A-1155463 316 nM
  Normalized data (SEAP): 98.6857
  Raw data (SEAP): 7.247
A-1155463 1000 nM
  Normalized data (SEAP): 76.9661
  Raw data (SEAP): 5.652
A-1155463 3160 nM
  Normalized data (SEAP): 98.598
  Raw data (SEAP): 7.241
A-1155463 10000 nM
  Normalized data (SEAP): 93.3297
  Raw data (SEAP): 6.854
Supplementary Figure 9e, CBPA11-v3-BclXLv2, A-1155463 1 nM
  SEAP, replicate values: 84.4482 and 81.7463 and 104.541
Supplementary Figure 9e, CBPA11-v3-BclXLv2, A-1155463 3.18 nM
  SEAP, replicate values: 146.322 and 134.178 and 165.303
Supplementary Figure 9e, CBPA11-v3-BclXLv2, A-1155463 10 nM
  SEAP, replicate values: 324.719 and 293.474 and 344.378
Supplementary Figure 9e, CBPA11-v3-BclXLv2, A-1155463 31.8 nM
  SEAP, replicate values: 360.563 and 353.899 and 371.872
Supplementary Figure 9e, CBPA11-v3-BclXLv2, A-1155463 100 nM
  SEAP, replicate values: 397.777 and 391.029 and 415.369
Supplementary Figure 9e, CBPA11-v3-BclXLv2, A-1155463 318 nM
  SEAP, replicate values: 374.208 and 326.503 and 405.592
Supplementary Figure 9e, CBPA11-v3-BclXLv2, A-1155463 1000 nM
  SEAP, replicate values: 326.827 and 274.864 and 352.239
Supplementary Figure 9e, CBPA11-v3-BclXLv2, A-1155463 3180 nM
  SEAP, replicate values: 224.895 and 197.696 and 225.125
Supplementary Figure 9e, CBPA11-v3, A-1155463 1 nM
  SEAP, replicate values: 77.8998 and 72.2772 and 68.2722
Supplementary Figure 9e, CBPA11-v3, A-1155463 3.18 nM
  SEAP, replicate values: 101.26 and 74.5174 and 69.017
Supplementary Figure 9e, CBPA11-v3, A-1155463 10 nM
  SEAP, replicate values: 279.56 and 237.506 and 229.509
Supplementary Figure 9e, CBPA11-v3, A-1155463 31.8 nM
  SEAP, replicate values: 420.603 and 418.534 and 369.593
Supplementary Figure 9e, CBPA11-v3, A-1155463 100 nM
  SEAP, replicate values: 495.942 and 494.207 and 527.219
Supplementary Figure 9e, CBPA11-v3, A-1155463 318 nM
  SEAP, replicate values: 528.894 and 526.095 and 525.969
Supplementary Figure 9e, CBPA11-v3, A-1155463 1000 nM
  SEAP, replicate values: 429.812 and 444.52 and 449.13
Supplementary Figure 9e, CBPA11-v3, A-1155463 3180 nM
  SEAP, replicate values: 188.374
Supplementary Figure 9d, CBPA11-v1-BclXLv2, A-1155463 1 nM
  SEAP, replicate values: 111.205 and 87.5973 and 101.043
Supplementary Figure 9d, CBPA11-v1-BclXLv2, A-1155463 3.18 nM
  SEAP, replicate values: 157.154 and 178.429 and 193.635
Supplementary Figure 9d, CBPA11-v1-BclXLv2, A-1155463 10 nM
  SEAP, replicate values: 436.402 and 372.407 and 451.931
Supplementary Figure 9d, CBPA11-v1-BclXLv2, A-1155463 31.8 nM
  SEAP, replicate values: 433.431 and 447.679 and 460.586
Supplementary Figure 9d, CBPA11-v1-BclXLv2, A-1155463 100 nM
  SEAP, replicate values: 510.537 and 467.35 and 481.779
Supplementary Figure 9d, CBPA11-v1-BclXLv2, A-1155463 318 nM
  SEAP, replicate values: 466.109 and 461.812 and 531.315
Supplementary Figure 9d, CBPA11-v1-BclXLv2, A-1155463 1000 nM
  SEAP, replicate values: 444.141 and 425.472 and 444.224
Supplementary Figure 9d, CBPA11-v1-BclXLv2, A-1155463 3180 nM
  SEAP, replicate values: 353.967 and 340.947 and 373.905
Supplementary Figure 9d, CBPA11-v1-BclXLv2, A-1155463 10000 nM
  SEAP, replicate values: 194.487 and 169.62 and 189.065
Supplementary Figure 9d, CBPA11-v1, A-1155463 1 nM
  SEAP, replicate values: 63.0929 and 67.5149 and 84.3456
Supplementary Figure 9d, CBPA11-v1, A-1155463 3.18 nM
  SEAP, replicate values: 70.097 and 95.813 and 111.853
Supplementary Figure 9d, CBPA11-v1, A-1155463 10 nM
  SEAP, replicate values: 455.879 and 489.769 and 488.832
Supplementary Figure 9d, CBPA11-v1, A-1155463 31.8 nM
  SEAP, replicate values: 620.201 and 681.136 and 678.515
Supplementary Figure 9d, CBPA11-v1, A-1155463 100 nM
  SEAP, replicate values: 962.669 and 957.215 and 954.472
Supplementary Figure 9d, CBPA11-v1, A-1155463 318 nM
  SEAP, replicate values: 973.295 and 858.467 and 847.573
Supplementary Figure 9d, CBPA11-v1, A-1155463 1000 nM
  SEAP, replicate values: 855.269 and 763.206 and 684.986
Supplementary Figure 9d, CBPA11-v1, A-1155463 3180 nM
  SEAP, replicate values: 503.783 and 501.256 and 493.903
Supplementary Figure 9d, CBPA11-v1, A-1155463 10000 nM
  SEAP, replicate values: 194.615 and 191.032 and 215.159
